Data: paper PMC9841525, “Chemical Blockage of the Mitochondrial Rhomboid Protease PARL by Novel Ketoamide Inhibitors Reveals Its Role in PINK1/Parkin-Dependent Mitophagy” (Journal of Medicinal Chemistry, 2022)
Entries after “also recorded” stand apart in the source; their conditions may differ. *1 amine or outer side, *2 acyl side, *3 side chain or, on linkers, in order; H or OH if unused. Where a SMILES comes first, the peptide text is derived from it. [ ]: non-standard residue; d: D form. The star is where a group is joined. NH(4-phenylbutyl) = c1ccc(CCCCN*)cc1; X1 = C[C@H](N[*:1])C(=O)C(=O)[*:2]

Key:
[1] = tested on: HEK293T cells; test: JC-1 mitochondrial membrane potential assay; type: cell-based, human; conditions: 5 µM compound 5 or CCCP, at least three hours, compared to DMSO
Description: Staining of cells for the determination of mitochondrial membrane potential was carried out with the JC-1 mitochondrial staining kit (Sigma-Aldrich) according to the kit’s instructions; stained cells were immediately taken to live cell imaging.
For fixation, cells were incubated for 15 min with 4% formaldehyde (16% formaldehyde diluted in PBS, Thermo Scientific) and washed in PBS. The cover glasses were mounted with Fluoromount-G (Southern Biotech) on microscope slides. All microscopy was performed on an LSM 780 system (Carl Zeiss) with a Plan-APOCHROMAT 63× 1.4NA oil objective (Carl Zeiss) and pinhole settings of 1 AU with the Zeiss ZEN 2010 software. Image processing and analysis was performed using ImageJ (http://rsb.info.nih.gov/ij/). […] Parkin recruitment events to the mitochondria were counted by hand throughout each z-stack and cell. […] JC-1 images were handled as summed intensity z-stack projections, as well as subjected to flatfield correction and subtraction of background before measuring the fluorescence levels normalized to the number of cell nuclei. The fluorescence intensity ratio between the red and green signal was calculated and compared to DMSO as a ratio of 1. Data were evaluated using Excel and GraphPad Prism 6.

[2] = target: T1, PARL (Homo sapiens, UniProt Q9H300); test: PARL inhibition in vitro, PARL in liposomes with substrate compound 4; type: biochemical; set-up: hexahistidine tag (C); made in house; host or cells: continuous-exchange cell-free expression in bacterial lysates with T7 polymerase (CUBE biotech), into liposomes
T1 sequence (Q9H300 53-379): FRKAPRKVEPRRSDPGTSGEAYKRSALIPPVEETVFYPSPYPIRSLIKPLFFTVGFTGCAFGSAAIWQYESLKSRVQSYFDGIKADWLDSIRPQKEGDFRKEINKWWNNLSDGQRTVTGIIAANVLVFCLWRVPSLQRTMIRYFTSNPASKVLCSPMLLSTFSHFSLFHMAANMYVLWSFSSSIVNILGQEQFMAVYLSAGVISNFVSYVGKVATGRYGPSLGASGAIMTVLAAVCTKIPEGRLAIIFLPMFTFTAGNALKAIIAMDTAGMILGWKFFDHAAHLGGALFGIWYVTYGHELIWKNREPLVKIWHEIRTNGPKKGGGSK
Description: Liposome preparation and cell-free protein expression of PARL were carried out essentially as described previously.[27] Liposomes resembling the lipid composition of the IMM were prepared by mixing 40% DOPC (1,2-dioleoyl-sn-glycero-3-phosphocholine), 33.8% DOPE (1,2-dioleoyl-sn-glycero-3-phosphoethanolamine), 18% CL(18:1)4 (1′,3′-bis[1,2-dioleyl-sn-glycero-3-phospho]-glycerol), 3% DOPS (1,2-dioleoyl-sn-glycero-3-phospho-L-serine), 5% soy-PI (L-α-phosphatidylinositol), and 0.2% rhodamine-PE (1,2-dioleoyl-sn-glycero-3-phosphoethanolamine-N-(lissamine rhodamine B sulfonyl)) in chloroform, followed by the evaporation of chloroform by a stream of nitrogen gas and drying in a vacuum chamber (Binder) for 1 h. Dried lipids were dissolved in buffer (5 mM Tris/HCl, pH 8.5, 10 mM KOAc) and extruded 21 times through a mini extruder (Avanti Polar Lipids) using a polycarbonate membrane with a pore size of […]. […] The PARL-containing liposomes were purified by a step-wise sucrose step-gradient centrifugation (0, 15, 30, and 40% sucrose in 5 mM HEPES pH 7.5 with 25 mM NaCl) for 2 h at 200,000 × g. Soluble proteoliposomes were harvested at the 0%/15% sucrose interface after the centrifugation. Concentration of PARL was determined by absorption at 280 nm.
PARL inhibition in vitro was measured in 5 mM Tris, 5 mM Mg(OAc)2, 25 μM Zn(OAc)2, 0.1 μg/μL BSA, 10% DMSO, pH 8.0 using PARL in liposomes at 0.07 mg/mL and compound 4 at 100 μM final concentration. Inhibitor concentrations were determined by quantitative amino acid analysis. Inhibitors in DMSO were dissolved at the respective concentrations into the reaction buffer by vigorous mixing at 1000 rpm, 37 °C for 40 min and then pre-incubated with PARL in liposomes at 37° for 1 h. The cleavage reaction was started by adding compound 4 and carried out at 37 °C in 96-well black HTS plates (Greiner Bio-One). Fluorescence was read in a plate reader (Tecan Infinite M1000) with excitation and emission wavelengths set to 355 and 450 nm, respectively. Data were evaluated using Excel (Microsoft) and GraphPad Prism 9 (GraphPad Software, Inc.). The data shown are representative of at least three independent experiments.

- Fold better than compound 6 in vitro ([2]; ratio of IC50 values, compound 5 vs compound 6): about 3 fold
- IC50 ([2]; recombinant mature PARL in liposomes, 100 μM substrate compound 4, mean ± SEM of three or four measurements): 28 nM
Compound: CC(=O)N[C@@H](C)C(=O)N[C@H](C(=O)N[C@@H](Cc1ccccc1)C(=O)N[C@@H](CC(C)C)C(=O)N[C@@H](C)C(=O)C(=O)NCCCCc1ccccc1)C(C)C [compound 5] (Ac-AVFL[X1]-{NH(4-phenylbutyl)})
- Effect on mitochondrial membrane potential (JC-1 aggregate to monomer ratio) [1]: does not depolarize; also recorded: does not significantly alter the membrane potential
